Measured values: US11787850B2, “Peptidic TGF-beta antagonists” (priority 2015, dated 2023)

Experiments:
[1] = test system: bleomycin-induced skin fibrosis; assay: Bleomycin-induced skin fibrosis (scleroderma) mouse model; type: in vivo
Experimental: Wild type mice were treated with bleomycin ([…]) to induce skin fibrosis or PBS (negative control). Mice were treated with CD109 ([…]), P16 ([…]), or PBS by 100 μL subcutaneous injection every other day for 28 days for a total of 14 injections.
(§1) Mice were injected intradermally with bleomycin (5 mg) in […] PBS or PBS alone every second day for 28 days. Mice were co-injected without or with 1.0 mg recombinant CD109 protein or P16 peptide every second day for 28 days (14 mg total). Skin tissue was harvested and immunohistochemical analysis was performed for the detection of Fibronectin, α-sma, CTGF and Type-1 Collagen. Representative images of sections of skin derived from CD109 and p16 treated mice on day 28 after initial bleomycin or PBS treatment are shown. A total of 4-6 different mice per treatment group were analyzed. Original magnification x 20.
as §1, with “phospho-Smad2, phospho-Smad1” for “Fibronectin, α-sma, CTGF”, “TGF-β levels.” for “Type-1 Collagen.”

[2] = test system: cancer stem cells (CD133 positive cells), epidermoid A431; assay: Flow cytometry of CD133 positive cells, A431; type: cell-based; conditions: 10 nM, 100 pM TGF-b1, 24 hours (FIG. 39)
Experimental: (§2) A431 cancer cells (8000 cells) were seeded on a BioCoat™ Matrigel® Invasion Chamber and treated with 10 nM of P16.2 (negative peptide control), P16 or PA in the absence or presence of 100 pM TGF-b, followed by 24 hrs of incubation. Invasive cells (in the lower chambers) were stained by crystal violet dye, photographed and counted. Representative photos (A) and statistical plots of invasion (B) are shown. The data are shown as mean±SD of the number of invasive cells for three independent experiments. **P<0.01 and ***P<0.001 as compared with controls. […] Squamous cell carcinoma (epidermoid A431 and head and neck FaDu) cells were stimulated with 100 pM of TGF-b1, then treated with 10 nM of peptide 16.2, P16, PA or CD109 for 24 hours. Cells were analysed by Flow cytometry and CD133 positive cell population, which represent cancer stem cell population, were quantified.

[3] = test system: cancer stem cells (CD133 positive cells), head and neck FaDu; assay: Flow cytometry of CD133 positive cells, FaDu; type: cell-based; conditions: 10 nM, 100 pM TGF-b1, 24 hours (FIG. 39)
Experimental: as §2

[4] = co-injected with bleomycin every second day for 28 days (FIG. 37)

Substance: Recombinant CD109: recombinant CD109 protein
- SMAD1 phosphorylation in skin (immunohistochemistry) [1, 4]: enhancing
- SMAD2 phosphorylation in skin (immunohistochemistry) [1, 4]: reduces
- TGF-β expression in skin (immunohistochemistry) [1, 4]: reduces
- extracellular matrix production (Fibronectin, α-sma, CTGF, Type-1 Collagen, immunohistochemistry) ([1]; co-injected with bleomycin every second day for 28 days, skin on day 28 (FIG. 36)): reduces
- number of cancer stem cells (CD133 positive cells), A431 [2]: inhibit
- number of cancer stem cells (CD133 positive cells), FaDu [3]: inhibit
